Results reported in patent US7119071B2, “Amino terminal substance P compositions and methods for using the same” (University of Medicine and Dentistry of New Jersey, priority 2002, dated 2006).

How the values were obtained:
Assay type in all cases: cell-based, human
[1] = tested on: CFU-GM; experiment: Clonogenic assay for CFU-GM in sera-free cultures; conditions: n=7
Protocol: BM aspirate was obtained from the posterior iliac crest of normal healthy volunteers. Mononuclear cells were isolated by Ficoll-Hypaque density gradient and then assayed for CFU-GM in sera-free cultures as described^3. Briefly, 10^5 BM mononuclear cells/ml were plated in methylcellulose with 10 or 1 nM of SP(1-4). Each experimental point was assayed in duplicate. Cultures were assayed in parallel in the presence or absence of anti-TGF-β or anti-TNF-α, each ranging between 2 μg/ml and 10 ng/ml. Cultures contained 3 U/ml of rhGM-CSF. At day 10, the number of colonies with >20 cells were counted.

[2] = tested on: NK-1 mRNA; experiment: Quantitative RT-PCR for NK-1 mRNA in BM stroma; conditions: n=6; for NK-1 mRNA, 1st stimulation: BM stroma, 10 nM SP(1-4) or 10 ng/ml SCF for 16 h, mean±SD; for NK-1 mRNA, 2nd stimulation: BM stroma washed and re-stimulated for 16 h after 16 h 1st stimulation
Protocol: (§1) Stromal cultures were prepared with BM aspirates from healthy donors as described^24. Briefly, stromal cells were cultured at 33° C. and at day 3, the granulocytes and red blood cells were removed by Ficoll-Hypaque density gradient. Cultures were reincubated with weekly replacement of 50% culture media until confluence. Cytokine, NK receptor and c-kit expressions were studied in confluent stroma, stimulated with 10 nM SP(1-4) and/or 10 ng/ml SCF. Stroma was stimulated in 3 ml sera-free cc-MEM, supplemented with insulin-transferring-selenium-A (Life Technologies, Grand Island, N.Y.). At 16 h, stromal monolayers were washed with sera-free α-MEM and then re-incubated for 16 h with media, 10 nM SP(1-4) or 10 ng/ml SCF. Controls included stroma cultured for 16 h or 32 h in media alone. Time-course and dose-response curves established the optimal concentrations of SCF and SP(1-4).
(§2) Quantitative RT-PCR for NK-1, NK-2 and β-PPT-I mRNA was performed as described^3, 24. Briefly, 2 μg of total RNA from BM stroma was reverse transcribed and 200 ng cDNA used in PCR reactions with standard DNA at log10 fold dilutions ranging between 10^−2 and 10^−6 attomole/L. PCR products (10 μl) were separated on agarose containing ethidium bromide. The DNA was scanned with a Fluorimager (Molecular Dynamics, Sunnyvale, Calif.) and the densities analyzed with ImageQuant software (Molecular Dynamics, version 5.2). A standard curve was established for each unknown sample: Band densities of unknown/standard DNA vs. Log10 standard DNA concentration. The concentration of the unknown sample was read at the point where the ratio of the unknown and standard were equivalent. Construction of DNA standards was previously described^24. • 1. Immunofluorescence for NK Receptors
(§3) BM stroma was stimulated with 10 nM SP(1-4) or 10 ng/ml SCF for 16 h (1st stimulation). After this, cultures were washed and then re-stimulated further for 16 h with similar concentrations of SP(1-4) or SCF (2nd stimulation). NK-1, NK-2 and β-PPT-I mRNA levels were quantitative by RT-PCR. The results are represented as the mean±SD, n=6. Each experiment was performed with a different BM donor. p<0.05: * vs. unstimulated or SP(1-4). […]: ** vs. unstimulated or SP(1-4).

[3] = tested on: β-PPT-I mRNA; experiment: Quantitative RT-PCR for β-PPT-I mRNA in BM stroma; conditions: n=6; for β-PPT-I mRNA, 1st stimulation: BM stroma, 10 nM SP(1-4) or 10 ng/ml SCF for 16 h, mean±SD; for β-PPT-I mRNA, 2nd stimulation: BM stroma washed and re-stimulated for 16 h after 16 h 1st stimulation
Protocol: as §1, §2, §3

[4] = tested on: TGF-β in BM stroma; experiment: Induction of TGF-β in BM stroma (CCL 64 growth inhibition bioassay); conditions: for TGF-β (pg/ml) 1st stimulation: BM stroma, 16 h, secreted and cell-bound, mean±SD; for TGF-β (pg/ml) 1st stimulation / TGF-β (pg/ml) 2nd stimulation: 10 nM SP(1-4) or 10 ng/ml SCF; for TGF-β (pg/ml) 2nd stimulation: BM stroma re-stimulated for 16 h after 16 h 1st stimulation
Protocol: as §1
Growth inhibition of CCL 64 cells forms the basis of the bioassay used to quantitate active TGF-β^25. Each sample was tested in triplicate with […] of supernatants. TGF-β levels were determined from a standard curve established with TGF-β concentrations ranging from 0.001 to 10 ng/ml vs. cell concentration. The presence of TGF-β1 was verified by reanalyses of samples containing >20 ng/ml TGF-β with neutralizing anti-hTGF-β1^25. Neutralization was determined if the anti-TGF-β1 reversed the growth inhibitory effect of the supernatants. • 1. Biopanning of Phage Display Library and Selection of Clones
BM stroma was stimulated with 10 nM SP(1-4) or 10 ng/ml SCF (1st stimulation). After 16 h, cells were harvested or cultures were re-stimulated for 16 h (2nd stimulation) with 10 nM SP(1-4) or 10 ng/ml SCF. TGF-β and TNF-α levels were determined in the total volume of supernatants and cell extracts, obtained from one flask of stromal cells. The results are represented as the mean±SD of the total concentration (secreted and cell-bound/106 stromal cells). p<0.05 vs. unstimulated or SCF.

[5] = tested on: NK-2 mRNA; experiment: Quantitative RT-PCR for NK-2 mRNA in BM stroma; conditions: n=6; for NK-2 mRNA, 1st stimulation: BM stroma, 10 nM SP(1-4) or 10 ng/ml SCF for 16 h, mean±SD; for NK-2 mRNA, 2nd stimulation: BM stroma washed and re-stimulated for 16 h after 16 h 1st stimulation
Protocol: as §1, §2, §3

[6] = tested on: NEP mRNA; experiment: Northern analysis of steady state NEP mRNA in BM stroma; conditions: 10 ng/ml SCF, FIG. 4A
Protocol: Northern analyses for steady state NEP and NK-1 mRNA were performed as described^28. For NEP mRNA, stromal cells were stimulated with SCF for 16 h in sera-free α-MEM supplemented with Insulin-Transferring-Selenium-A. At different times after, total RNA was extracted and 10 μg used for northern analyses. Membranes were consecutively hybridized with [α-^32P]-dATP-labeled cDNA probes for NEP and 18S rRNA as described^3. NK-1 mRNA was determined with total RNA from stromal cultures that were sequentially stimulated with SCF and SP(1-4), described above. The cDNA for NK-1 is previously described^29. NK-2 cDNA was prepared by RT-PCR with total RNA from BM stroma as template and the same primers used for quantitative RT-PCR (described above). The NK-2 fragment, which was equivalent to 274 bp was subcloned into pNoTA/T7 (5 Prime→3 Prime, Boulder, Colo.). The cDNA for human NEP sand 18S rRNA were purchased from American Type Culture Collection (Manassas, Va.).
Total RNA from unstimulated and stimulated (10 ng/ml SCF) BM stroma was analyzed for steady state NEP mRNA levels by northern analyses. The results shown in FIG. 4A indicate single bands at the predicted size of 1.8 kb. […] Analyses for SP and SP(1-4) were performed at different times using Ciphergen's ProteinChip Arrays. ELISA determined the levels of SP-IR in the supernatant and cell extracts of the stimulated stroma (5×10^6 stroma). […]

[7] = tested on: NK-1 receptor; experiment: Immunofluorescence for SP-binding sites (NK-1) in BM stroma; conditions: 10 ng/ml SCF and/or 10 nM SP(1-4), FIG. 2
Protocol: (§4) BM stroma was stimulated with 10 ng/ml of SCF. At 24 h, cells were washed and then immediately incubated at 4° C. for 2 h with 200 ng/ml of biotin-SP or biotin-NK-A. After this, cells were labeled with FITC-avidin for 30 min and then examined for fluorescence intensity with an Olympus Provis AX-70 at 480±40 nm/excitation and 535±50 nm/emission. […] The optimal experimental conditions were determined in dose-response and time-course studies. Specificity of binding by SP or NK-A was studied in competition labeling with the pan-tachykinin antagonist, spantide. • 2. TNF-α determination
(§5) Since NK-1 and NK-2 receptors mediated the hematopoietic effects of the tachykinins^5, this section describes the studies and their results designed to further determine the interacting receptor for SP(1-4). Due to the lack of specific antibodies to the human NK-1 and NK-2 receptors, their detection by immunofluorescence was performed with the preferred ligand that was conjugated to biotin: SP for NK-1 and NK-A for NK-2^12. Spantide, a pan-tachykinin antagonist that competes with the ligand for NK receptor binding was used to determine the specificity of binding.

[8] = tested on: c-kit; experiment: Immunofluorescence for c-kit in BM stroma; conditions: 10 ng/ml SCF, 6 h to 24 h, dim in unstimulated stroma
Protocol: The relative expression of c-kit in BM stroma was determined by immunofluorescence. BM stroma was cultured on coverslips (Fisher Scientific, Springfield, N.J.) and then stimulated with 10 ng/ml of SCF. At different times after cell stimulation, cells were labeled with 50 ng/ml of biotinylated goat anti-c-kit and FITC-avidin. Non-specific binding was determined with biotinylated non-immune goat anti-IgG. Cells were immediately examined on an OlympusProbis microscope (New York/New Jersey Scientific, Inc., Middlebush, N.J.).

[9] = tested on: SP-IR; experiment: Competitive ELISA for SP-immunoreactivity (SP-IR) in stimulated BM stroma; conditions: 10 ng/ml SCF, 5×10^6 stroma
Protocol: Competitive ELISA quantitated SP-IR as described^3. Briefly, Immulon 96-well plates (Dynatech Laboratories Inc., Chantilly, Va.) were precoated with streptavidin and then incubated with biotinylated SP (Chiron Mimotopes, Emeryville, Calif.). Equal volumes (50 μl) of unknown samples and optimum rabbit anti-SP were added to quadruplicate wells. Each sample was assayed as undiluted and three serial dilutions. Complexed anti-SP was detected with Alk Phos-conjugated goat anti-rabbit IgG and Sigma 104 phosphatase substrate. SP-IR levels were calculated from a standard curve developed with O.D. at 405 nm vs. 12 serial dilutions of known SP concentrations, ranging from 100 to 0.08 pg/ml.
Total RNA from unstimulated and stimulated (10 ng/ml SCF) BM stroma was analyzed for steady state NEP mRNA levels by northern analyses. The results shown in FIG. 4A indicate single bands at the predicted size of 1.8 kb. […] Analyses for SP and SP(1-4) were performed at different times using Ciphergen's ProteinChip Arrays. ELISA determined the levels of SP-IR in the supernatant and cell extracts of the stimulated stroma (5×10^6 stroma). An affinity protein chip with mobilized anti-SP determined the presence of SP(1-4) in extracts from 48 h-stimulated stroma. […] At 24 h, the total levels of SP-IR (supernatants and cell extracts) in stimulated stroma were 185±8 ng. SP levels were reduced to 12±5 ng at 48 h and to baseline levels (<2 ng) at 72 h (Table 3).

[10] = tested on: NK-2 receptor; experiment: Immunofluorescence for NK-A-binding sites (NK-2) in BM stroma; conditions: 10 ng/ml SCF and/or 10 nM SP(1-4), FIG. 2
Protocol: as §4, §5

Row | NK-1 expression (biotin-SP binding) [7] | NK-2 expression (biotin-NK-A binding) [10] | Substance | percent inhibition on CFU-GM ([1]; 1 nM SP(1-4)) [%] | percent inhibition on CFU-GM ([1]; 10 nM SP(1-4)) [%] | NK-1 mRNA, 1st stimulation [2] | β-PPT-I mRNA, 1st stimulation [3] | TGF-β, stimulated BM stroma ([4]; 1st stimulation, text citing Table 1) [pg] | TGF-β (pg/ml) 1st stimulation [4] | NK-2 mRNA, 1st stimulation [5] | steady state NEP mRNA (northern band) ([6]; 16 h and 24 h) | steady state NEP mRNA (northern band) ([6]; 48 h) | NK-1 mRNA, 2nd stimulation [2] | fluorescence intensity of c-kit labeling [8] | total levels of SP-IR (supernatants and cell extracts) ([9]; 24 h, unstimulated <2 ng) [ng] | total levels of SP-IR (supernatants and cell extracts) ([9]; 48 h) [ng] | total levels of SP-IR (supernatants and cell extracts) ([9]; 72 h) [ng] | β-PPT-I mRNA, 2nd stimulation [3] | TGF-β levels after 2nd stimulation ([4]; 1st stimulation SP(1-4), 2nd stimulation 16 h later, text citing Table 1) [pg] | TGF-β (pg/ml) 2nd stimulation [4] | NK-2 mRNA, 2nd stimulation [5]
1 | – | – | Arg-Pro-Lys-Pro (RPKP; listed as Homo sapiens) [SP(1-4), tetrapeptide resulting from degradation of SP by endopeptidases such as NEP] | 55±4 | 65±6 | <1 molecules/μg total RNA | <1 | 90 ± 15 | *90 ± 15 pg/ml | **510 ± 15 | – | – | – | – | – | – | – | – | – | – | –
2 | SP binds to stromal cells | did not bind | SCF: stem cell factor, hematopoietic stimulator cytokine purchased from R&D Systems | – | – | *1550 ± 26 molecules/μg total RNA | 640 ± 15 | – | <5 pg/mL | 17 ± 3 | Strong bands | no detectable band | 1480±34 molecules/μg total RNA | increased to bright | 185 ± 8 | 12 ± 5 | < 2 | – | – | – | –
3 | – | – | SP(1-4)→SP(1-4): 1st and 2nd stimulation with 10 nM SP(1-4) (RPKP; Substance P; UniProt P20366 58-61, looked up, fragment) | – | – | – | – | – | – | – | – | – | <1 molecules/μg total RNA | – | – | – | – | <1 | 64 ± 4 | *64 ± 4 pg/ml | **484 ± 10
4 | – | – | SCF→SCF: 1st and 2nd stimulation with 10 ng/ml SCF | – | – | – | – | – | – | – | – | – | *1480 ± 34 molecules/μg total RNA | – | – | – | – | 45 ± 4 | – | <5 pg/mL | 10 ± 2
